# Where two headings read alike, the source gives them in different places.
# Legend:
# [1] = tested on: HCV subgenomic replicon RNA of genotype 1b strain Con1; assay: Drug combination analysis (CalcuSyn) in Con1 LUN Sb #26 replicon cells; format: cell-based, hepatitis C virus; settings: 72 h; for effect of combination with compound 10 on inhibition of HCV replication (combination index at EC50, EC75, EC90): CI <0.9 synergy, 0.9 to 1.1 additivity, >1.1 antagonism; for isobologram: location of calculated EC90 plots for combination with compound 10: under additive line = synergy, above = antagonism
# Method: (§1) The replicon cells were seeded at 2×10^4 cells per well in a 48-well plate 24 h before treatment. […] The resulting cells were harvested 72 h post-treatment and lysed with cell culture lysis reagent (Promega, Madison, WI). The luciferase activity of each cell lysate was estimated using a luciferase assay system (Promega). The resulting luminescence was detected by a Luminescencer-JNR AB-2100 (ATTO, Tokyo, Japan).
# The effects of drug-drug combinations were evaluated by using the Con1 LUN Sb #26 replicon cells, and were analyzed by using the computer software CalcuSyn (Biosoft, Cambridge, United Kingdom). Dose inhibition curves of two different drugs were plotted with each other. In each drug combination, EC90 values of several combinations of two different drugs were plotted as the fractional concentration (FC) of both drugs on the x and y-axes. Additivity indicates the line linked between 1.0 FC value points of both drugs in the absence of each other. Synergy and antagonism are indicated by values plotted under and above, respectively, an additivity line. The explanatory diagram of isobologram is shown in a right end of lower panels of Figure 5A. Combination indexes (CIs) were calculated at the EC50, EC75, and EC90 by using CalcuSyn. A CI value of less than 0.9 indicates synergy. A CI value ranging from 0.9 to 1.1 indicates additivity. A CI value of more than 1.1 indicates antagonism. The explanatory diagram was shown in a right end of lower panels of Figure 5B.
# [2] = Cytotoxicity (MTS assay) in Huh7/Rep-Feo replicon cells; format: cell-based; settings: human, Huh7/Rep-Feo cells, MTS, read-out: CC50, fifty percent cytotoxicity concentration based on the reduction in cell viability
# Method: (§2) The replicon cells were seeded at a density of 1×10^4 cells per well in a 96-well plate and then incubated at 37°C for 24 h. […] Cell viability was measured using a dimethylthiazol carboxymethoxy-phenylsulfophenyl tetrazolium (MTS) assay with a CellTiter 96 aqueous one-solution cell proliferation assay kit (Promega).
# [3] = tested on: HCV subgenomic replicon RNA of genotype 1b strain N (Huh7/Rep-Feo cells); assay: Luciferase assay in HCV subgenomic replicon cell line Huh7/Rep-Feo; format: cell-based, hepatitis C virus; settings: Huh7/Rep-Feo; for EC50: subgenome, read-out: EC50, fifty percent effective concentration based on the inhibition of HCV replication; for EC50 / SI, selectivity index (CC50/EC50): strain N (1b)
# Method: (§3) The Huh7/Rep-Feo cell line, which harbors the subgenomic replicon RNA composed of HCV IRES, the gene of the fusion protein consisting of neomycin phosphotransferase and firefly luciferase, EMCV IRES and a nonstructural gene of genotype 1b strain N in order in Huh7 cell line, was previously established. Thus, the luciferase activity corresponds to the level of HCV RNA replication. The cell line was maintained in Dulbecco's modified Eagle medium containing 10% fetal calf serum and 0.5 mg/mL G418 and cultured in absence of G418 when they were treated with compounds. The Lunet/Con1LUN Sb #26 cell line, which harbors the subgenomic replicon RNA of the Con1 strain (genotype 1b), was described previously. The OR6 cell line, which harbors the full genomic replicon RNA of the O strain (genotype 1b), was described previously. The HCV replicon cell line derived from the genotype 2a strain JFH1 was described previously. The viral RNA derived from the plasmid pJFH1 was transcribed and introduced into Huh7OK1 cells according to the method of Wakita et al.. The virus was amplified by the several times passages. The cells were infected with the virus at a multiplicity of infection (moi) of 1 and then treated with each compound at 24 h post-infection. The culture supernatants were harvested 72 h post-treatment to estimate the viral RNA as described below.
# as §1
# EMCV or HCV IRES = assay: Effect on IRES-dependent translation in transfected Huh7 cells; format: cell-based; settings: 40 µg/ml, 72 h
# Method: (§4) Huh7 OK1 cells were transfected with pEF.Rluc.HCV.IRES.Feo or pEF.Rluc.EMCV.IRES.Feo [39]. These transfected cells were seeded at 2×10^4 cells per well in a 48-well plate 24 h before treatment, treated with DMSO or compound 10, and then harvested at 72 h post-treatment. The firefly luciferase activities were measured with a luciferase assay system (Promega). The total protein concentration was measured using the BCA Protein Assay Reagent Kit (Thermo Scientific, Rockford, IL, USA) to normalize luciferase activity. To evaluate the interferon response, Huh7OK1 cells were seeded on a 48 well plate at a density of 2×10^4 cells per well, and transfected with pISRE-TA-Luc (Takara bio, Shiga, Japan) and phRG-TK (Promega). These transfected cells were incubated in the presence of compounds, IFN-α 2b, or DMSO, and then harvested at 48 h post-treatment. The firefly luciferase and Renilla luciferase activities were quantified by using Dual luciferase reporter assay system (Promega).
# [4] = tested on: firefly and Renilla luciferases; assay: Effect on firefly and Renilla luciferase activities in transfected Huh7 cells; format: cell-based; settings: 40 µg/ml, 72 h
# Method: as §4
# [5] = tested on: HCV full genomic replicon RNA of the O strain (genotype 1b); assay: Luciferase assay in OR6 full genome replicon cells; format: cell-based, hepatitis C virus
# Method: as §3, with “The cells were infected with the virus at a multiplicity of infection (moi) of 1 and then treated with each compound at 24 h post-infection. The culture supernatants were harvested 72 h post-treatment to estimate the viral RNA as described below.” left out
# (§5) The replicon cells were seeded at 2×10^4 cells per well in a 48-well plate 24 h before treatment. […] The resulting luminescence was detected by a Luminescencer-JNR AB-2100 (ATTO, Tokyo, Japan).
# [6] = tested on: HCVcc derived from JFH-1 strain; assay: HCVcc virus production in Huh7 OK1 cells (supernatant viral RNA by qRT-PCR); format: cell-based; settings: Hepatitis C virus, 24 h, read-out: EC50 of HCV viral production
# Method: as §3, with “below. […]” for “below.”
# ISRE-promoter activity = assay: ISRE reporter assay in Huh7 OK1 cells; format: cell-based; settings: 48 h of treatment, interferon alpha 2b as positive control
# HCV NS3 = assay: Western blotting of NS3 in Huh7/Rep-Feo cells; format: cell-based, hepatitis C virus; settings: Huh7/Rep-Feo cells treated 72 h, dose-dependent
# Method: Western blotting was carried out by the method described previously. The antibodies to NS3 (clone 8G-2, mousemonoclonal, Abcam, Cambridge, UK), and beta-actin were purchased from Cell Signaling Technology (rabbit polyclonal, Danvers, MA, USA) and were used as the primary antibodies in this study.
# [7] = tested on: HCV subgenomic replicon RNA of the Con1 strain (genotype 1b); assay: Luciferase assay in Con1 LUN Sb #26 replicon cells; format: cell-based, hepatitis C virus
# Method: as §3, with “The cells were infected with the virus at a multiplicity of infection (moi) of 1 and then treated with each compound at 24 h post-infection. The culture supernatants were harvested 72 h post-treatment to estimate the viral RNA as described below.” left out
# as §5
# [8] = tested on: HCV subgenomic replicon of genotype 2a strain JFH1; assay: Luciferase assay in genotype 2a JFH1 replicon cells; format: cell-based, hepatitis C virus; settings: Huh7 Rep/Reo-2a, JFH1 (2a)
# Method: as §3, with “The cells were infected with the virus at a multiplicity of infection (moi) of 1 and then treated with each compound at 24 h post-infection. The culture supernatants were harvested 72 h post-treatment to estimate the viral RNA as described below.” left out
# as §5
# Huh7/Rep-Feo cells = assay: Cytotoxicity (MTS assay) in Huh7/Rep-Feo replicon cells; format: cell-based; settings: Huh7/Rep-Feo cells, 72 h, MTS; read-out: CC50, fifty percent cytotoxicity concentration based on the reduction in cell viability
# Method: as §2
compound,measurement,setting,value
CC(C)(C)OC(=O)N[C@H]1CCCCC/C=C\[C@@H]2C[C@@]2(C(=O)NS(=O)(=O)C2CC2)NC(=O)[C@@H]2C[C@@H](OC(=O)N3Cc4cccc(F)c4C3)CN2C1=O [danoprevir],"effect of combination with compound 10 on inhibition of HCV replication (combination index at EC50, EC75, EC90)",[1],antagonistic to additive effect
same,isobologram: location of calculated EC90 plots for combination with compound 10,[1],above the additive line
CC(C)(C)C#Cc1cc(N(C(=O)[C@H]2CC[C@H](C)CC2)[C@H]2CC[C@H](O)CC2)c(C(=O)O)s1 [VX-222],"effect of combination with compound 10 on inhibition of HCV replication (combination index at EC50, EC75, EC90)",[1],additive to synergistic effect
same,isobologram: location of calculated EC90 plots for combination with compound 10,[1],under the additive line
"O=C(/C=C/c1ccc(O)c(O)c1)O[C@@H]1C[C@](O)(C(=O)O)C[C@@H](O)[C@H]1O [Compound 5, chlorogenic acid]",CC50 at 72 h,[2]; Huh7/Rep-Feo replicon cells,> 320 µM
same,EC50,"[3]; Hepatitis C virus, Huh-7, 72 h",103 ± 3.4 µM
same,"SI, selectivity index (CC50/EC50)",[3],>3.1
"CCCCCCCCOC(=O)/C=C/c1ccc(O)c(O)c1 [Compound 10, Caffeic acid n-octyl ester]",IRES-dependent translation,EMCV or HCV IRES,not effect
same,enzymatic activities of firefly and Renilla luciferases,[4],not effect
same,EC50,"[5]; Hepatitis C virus, OR6, full genome, O (1b), 72 h, read-out: EC50, fifty percent effective concentration based on the inhibition of HCV replication",1.5 ± 0.4 µM
same,"SI, selectivity index (CC50/EC50)","[5]; OR6, O (1b)",41.1
same,CC50 at 72 h,[2]; Huh7/Rep-Feo replicon cells,71.7 ± 8.5 µM
same,EC50,[6],1.8 ± 0.4 µM
same,effect on ISRE-promoter activities,ISRE-promoter activity,no significant effects
same,NS3 protein level,HCV NS3,reduced
same,"SI, selectivity index (CC50/EC50)","[7]; Con1 LUN Sb #26, Con1 (1b)",63.1
same,EC50,"[7]; Hepatitis C virus, Con1 LUN Sb #26, subgenome, Con1 (1b), 72 h, read-out: EC50, fifty percent effective concentration based on the inhibition of HCV replication",1 ± 0.1 µM
same,EC50,"[3]; Hepatitis C virus, Huh-7, 72 h",2.7 ± 0.1 µM
same,"SI, selectivity index (CC50/EC50)",[3],26.6
same,HCV RNA replication (luciferase activity),"[3]; various concentrations (compound 1: 1.3 to 40 µM), 72 h, dose-dependent",reduced
same,EC50,"[8]; Hepatitis C virus, Huh-7, subgenome, 72 h, read-out: EC50, fifty percent effective concentration based on the inhibition of HCV replication",1 ± 0.3 µM
same,"SI, selectivity index (CC50/EC50)",[8],60.0
"COC(=O)/C=C/c1ccc(O)c(O)c1 [Compound 7, caffeic acid methyl ester]",CC50,Huh7/Rep-Feo cells,122 ± 5 µM
same,EC50,[3]; 72 h,28.6 ± 1.2 µM
"O=C(/C=C/c1ccc(O)c(O)c1)O[C@H](Cc1ccc(O)c(O)c1)C(=O)O [Compound 6, Rosmarinic acid]",CC50 at 72 h,[2],> 320 µM
same,effect on ISRE-promoter activities,ISRE-promoter activity,no significant effects
same,EC50,"[3]; Hepatitis C virus, Huh-7, 72 h",110 ± 1.1 µM
same,"SI, selectivity index (CC50/EC50)",[3],>2.9
"COC(=O)CCc1ccc(O)c(O)c1 [Compound 12, Dihydrocaffeic acid methyl ester]",CC50,Huh7/Rep-Feo cells,141 ± 3.4 µM
same,EC50,[3]; 72 h,77 ± 1.6 µM
CCC[C@H](NC(=O)[C@@H]1[C@H]2CCC[C@H]2CN1C(=O)[C@@H](NC(=O)[C@@H](NC(=O)c1cnccn1)C1CCCCC1)C(C)(C)C)C(=O)C(=O)NC1CC1 [telaprevir],"effect of combination with compound 10 on inhibition of HCV replication (combination index at EC50, EC75, EC90)",[1],antagonistic effect
same,isobologram: location of calculated EC90 plots for combination with compound 10,[1],above the additive line
"CCCCCCCCOC(=O)/C=C/c1ccc(OC)c(O)c1 [Compound 14, 4-O-methylcaffeic acid n-octyl ester]",CC50 at 72 h,[2]; Huh7/Rep-Feo replicon cells,59.2 ± 1.4 µM
same,EC50,"[3]; Hepatitis C virus, Huh-7, 72 h",19.6 ± 0.8 µM
same,"SI, selectivity index (CC50/EC50)",[3],3
COC(=O)N[C@H](C(=O)N1CCC[C@H]1c1nc(-c2ccc(-c3ccc(-c4c[nH]c([C@@H]5CCCN5C(=O)[C@@H](NC(=O)OC)C(C)C)n4)cc3)cc2)c[nH]1)C(C)C [daclatasvir],"effect of combination with compound 10 on inhibition of HCV replication (combination index at EC50, EC75, EC90)",[1],strong synergistic effect
same,isobologram: location of calculated EC90 plots for combination with compound 10,[1],under the additive line
"COc1cc(/C=C/C(=O)O)ccc1O [Compound 3, ferulic acid]",CC50,Huh7/Rep-Feo cells,> 320 µM
same,EC50,[3]; 72 h,71.9 ± 5.8 µM
"O=C(C=Cc1ccccc1)OCCc1ccccc1 [Compound 4, Cinnamic acid phenethyl ester]",CC50,Huh7/Rep-Feo cells,> 320 µM
same,EC50,[3]; 72 h,86.1 ± 6.3 µM
"CCCCCCCCOC(=O)C=Cc1cc(O)c(O)c(O)c1 [Compound 16, 3,4,5-Trihydroxycinnamic acid n-octyl ester]",CC50 at 72 h,[2]; Huh7/Rep-Feo replicon cells,59.8 ± 6.9 µM
same,EC50,"[3]; Hepatitis C virus, Huh-7, 72 h",36.3 ± 2.9 µM
same,"SI, selectivity index (CC50/EC50)",[3],1.6
"CCCCCCCCOC(=O)/C=C/c1ccc(O)c(OC)c1 [Compound 13, 3-O-methylcaffeic acid n-octyl ester]",CC50 at 72 h,[2]; Huh7/Rep-Feo replicon cells,60.3 ± 1.6 µM
same,EC50,"[3]; Hepatitis C virus, Huh-7, 72 h",10.2 ± 1.1 µM
same,"SI, selectivity index (CC50/EC50)",[3],5.9
"O=C(O)/C=C/c1ccc(O)c(O)c1 [Compound 2, caffeic acid]",CC50 at 72 h,[2]; Huh7/Rep-Feo replicon cells,> 320 µM
same,EC50,"[3]; Hepatitis C virus, Huh-7, 72 h",36.6 ± 6.7 µM
same,"SI, selectivity index (CC50/EC50)",[3],>8.7

# From article PMC3866116 (PLoS ONE, 2013)
